Counter-ions that a name gives are not always drawn.
Legend:
[1] = molecular target: T1, DPP-IV (Homo sapiens, UniProt P27487); experiment: Caco-2 DPP-IV Assay (inhibition of DPP-IV activity from human colonic carcinoma cell extracts); assay type: biochemical; conditions: human Caco-2 cell extract, H-Alanine-Proline-pNA substrate, pH 7.4, room temperature, 10 minutes
T1 construct: Cell extract is prepared from cells solubilized in 10 mM Tris-HCl; host or cells: Caco-2

[2] = molecular target: T2, rat plasma DPP-IV (Rattus norvegicus, UniProt P14740); experiment: rat plasma DPP-IV inhibition assay; assay type: biochemical; conditions: H-Glycine-Proline-AMC substrate, pH 7.8, room temperature, 20 min
T2 construct: DPP-IV activity in human and rat plasma; from tissue; host or cells: rat plasma
Experimental: Briefly, five μl of plasma are added to 96-well flat-bottom microtiter plates (Falcon), followed by the addition of 5 μl of 80 mM MgCl2 in incubation buffer (25 mM HEPES, 140 mM NaCl, 1% RIA-grade BSA, pH 7.8). After a 5 min. incubation at room temperature, the reaction is initiated by the addition of 10 μl of incubation buffer containing 0.1 mM substrate (H-Glycine-Proline-AMC; AMC is 7-amino-4-methylcoumarin). The plates are covered with aluminum foil (or kept in the dark) and incubated at room temperature for 20 min. […] A fluorescence-concentration curve of free AMC is generated using 0-50 μM solutions of AMC in assay buffer. The curve generated is linear and is used for interpolation of substrate consumption (catalytic activity in nmoles substrate cleaved/min). As with the previous assay, the potency of the test compounds as DPP-IV inhibitors, expressed as IC50, is calculated from 8-point, dose-response curves using a 4 parameter logistic function.

[3] = molecular target: T3, human plasma DPP-IV (Homo sapiens, UniProt P27487); experiment: human plasma DPP-IV inhibition assay; assay type: biochemical; conditions: H-Glycine-Proline-AMC substrate, pH 7.8, room temperature, 20 min
T3 construct: DPP-IV activity in human and rat plasma; from tissue; host or cells: human plasma

[4] = system: insulin resistant rats; experiment: early insulin response to an oral glucose challenge in insulin resistant rats; assay type: in vivo, Male Sprague-Dawley rats; conditions: 10 μmol/kg orally in CMC, high fat diet rats, oral glucose 1 g/kg 30 minutes after compound; % increase of the mean of the control animals

T3 sequence (P27487 39-766 limits assumed): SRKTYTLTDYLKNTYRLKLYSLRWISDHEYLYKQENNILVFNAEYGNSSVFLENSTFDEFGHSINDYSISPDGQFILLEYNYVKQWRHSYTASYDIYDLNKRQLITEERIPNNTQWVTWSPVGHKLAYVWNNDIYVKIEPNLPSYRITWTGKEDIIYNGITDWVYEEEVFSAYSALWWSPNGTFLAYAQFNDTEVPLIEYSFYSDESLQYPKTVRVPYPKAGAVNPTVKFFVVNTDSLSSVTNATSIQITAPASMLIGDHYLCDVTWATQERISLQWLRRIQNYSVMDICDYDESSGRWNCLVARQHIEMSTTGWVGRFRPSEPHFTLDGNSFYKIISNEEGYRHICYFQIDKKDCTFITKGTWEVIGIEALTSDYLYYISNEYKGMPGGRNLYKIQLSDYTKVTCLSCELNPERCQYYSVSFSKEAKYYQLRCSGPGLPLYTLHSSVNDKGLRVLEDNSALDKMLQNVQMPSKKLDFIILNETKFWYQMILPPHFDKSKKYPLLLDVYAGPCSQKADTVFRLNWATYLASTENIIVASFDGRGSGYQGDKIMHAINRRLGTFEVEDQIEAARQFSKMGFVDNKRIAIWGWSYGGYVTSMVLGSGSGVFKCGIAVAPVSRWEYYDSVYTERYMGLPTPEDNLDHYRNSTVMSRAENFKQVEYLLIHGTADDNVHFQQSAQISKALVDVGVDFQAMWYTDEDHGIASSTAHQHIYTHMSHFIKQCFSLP
T2 sequence (P14740 37-767 limits assumed): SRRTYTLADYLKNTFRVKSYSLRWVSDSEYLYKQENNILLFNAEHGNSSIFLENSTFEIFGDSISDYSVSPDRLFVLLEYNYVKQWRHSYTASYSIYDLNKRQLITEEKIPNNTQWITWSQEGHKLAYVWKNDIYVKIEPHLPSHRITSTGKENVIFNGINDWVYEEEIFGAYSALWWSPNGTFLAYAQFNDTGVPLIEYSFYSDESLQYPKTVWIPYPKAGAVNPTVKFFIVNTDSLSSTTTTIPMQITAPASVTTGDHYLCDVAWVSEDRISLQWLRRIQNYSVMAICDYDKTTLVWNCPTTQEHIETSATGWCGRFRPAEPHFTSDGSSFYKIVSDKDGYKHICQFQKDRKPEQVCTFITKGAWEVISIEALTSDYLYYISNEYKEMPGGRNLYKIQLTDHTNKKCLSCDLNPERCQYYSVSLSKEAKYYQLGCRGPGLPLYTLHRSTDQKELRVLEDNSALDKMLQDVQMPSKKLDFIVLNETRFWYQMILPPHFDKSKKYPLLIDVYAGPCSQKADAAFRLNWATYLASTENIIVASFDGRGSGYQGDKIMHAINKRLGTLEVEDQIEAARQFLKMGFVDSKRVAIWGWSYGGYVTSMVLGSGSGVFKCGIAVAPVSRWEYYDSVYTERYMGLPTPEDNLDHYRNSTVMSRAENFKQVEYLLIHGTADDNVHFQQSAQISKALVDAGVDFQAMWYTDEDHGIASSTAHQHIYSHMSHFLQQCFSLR
T1 sequence (P27487 whole entry): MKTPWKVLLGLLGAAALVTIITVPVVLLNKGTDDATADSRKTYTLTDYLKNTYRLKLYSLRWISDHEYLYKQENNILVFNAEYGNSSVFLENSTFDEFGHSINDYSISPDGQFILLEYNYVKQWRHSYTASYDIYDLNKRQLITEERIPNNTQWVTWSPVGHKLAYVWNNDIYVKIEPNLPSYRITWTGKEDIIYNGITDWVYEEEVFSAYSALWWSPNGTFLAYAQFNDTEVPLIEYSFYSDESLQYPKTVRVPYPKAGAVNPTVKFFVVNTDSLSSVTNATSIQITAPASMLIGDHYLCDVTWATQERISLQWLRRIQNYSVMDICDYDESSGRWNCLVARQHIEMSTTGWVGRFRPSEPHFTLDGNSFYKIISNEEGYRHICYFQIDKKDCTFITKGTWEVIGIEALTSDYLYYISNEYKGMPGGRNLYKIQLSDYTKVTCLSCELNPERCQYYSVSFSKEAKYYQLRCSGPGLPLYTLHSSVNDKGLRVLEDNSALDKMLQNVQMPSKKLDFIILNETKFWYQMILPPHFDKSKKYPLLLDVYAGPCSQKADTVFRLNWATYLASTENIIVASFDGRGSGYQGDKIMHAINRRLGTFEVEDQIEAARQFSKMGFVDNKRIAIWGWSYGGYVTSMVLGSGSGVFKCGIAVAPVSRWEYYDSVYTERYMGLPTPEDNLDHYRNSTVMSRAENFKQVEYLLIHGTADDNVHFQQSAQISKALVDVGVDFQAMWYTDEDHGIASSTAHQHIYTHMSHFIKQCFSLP

IC50 [1]	IC50 [2]	IC50 [3]	Structure (SMILES)	Increase of Insulin Response at 10 μmol/kg [4]
140 nM	140 nM	110 nM	CC1(C)C2CCC(CNCC(=O)N3CCC[C@H]3C#N)C1C2 (single isomer, unassigned) [Ex. 25, Pyrrolidine, 1-[[(6,6-dimethylbicyclo[3.1.1]hept-2-yl)methyl]amino]acetyl-2-cyano-[1S[1α,2α(S*),5α]]-(S)--, monohydrochloride]	
			N#Cc1ccc(NCCNCC(=O)N2CCC[C@H]2C#N)nc1 [Ex. 3, 1-[2-[(5-cyanopyridin-2-yl)amino]ethylamino]acetyl-2-cyano-(S)-pyrrolidine dihydrochloride]	66%
			N#C[C@@H]1CCCN1C(=O)CNC1(CO)CCCC1 [Ex. 5, 1-[(1-hydroxymethylcyclopent-1-yl)amino]acetyl-2-cyano-(S)-pyrrolidine]	108%
165 nM			N#C[C@@H]1CCCN1C(=O)CNCCNc1nccc(Cl)n1 [Ex. 7A, 1-[2-[(4-chloropyrimidin-2-yl)amino]ethylamino]acetyl-2-cyano-(S)-pyrrolidine]	
175 nM			N#C[C@@H]1CCCN1C(=O)CNCCNc1ncccc1Cl [Ex. 7B, 1-[2-[(3-chloropyridin-2-yl)amino]ethylamino]acetyl-2-cyano-(S)-pyrrolidine]	
290 nM			N#C[C@@H]1CCCN1C(=O)CNCCNc1nccc(C(F)(F)F)n1 [Ex. 7C]	
382 nM			N#C[C@@H]1CCCN1C(=O)CNCCc1ccccc1Cl [Ex. 7D, 1-[(2-chlorophenyl)ethylamino]acetyl-2-cyano-(S)-pyrrolidine]	
			N#C[C@@H]1CCCN1C(=O)CNCCNc1ccc([N+](=O)[O-])cn1 [Ex. 8, 1-[2-[(5-nitropyridin-2-yl)amino]ethylamino]acetyl-2-cyano-(S)pyrrolidine]	144%
990 nM			N#C[C@@H]1CCCN1C(=O)CNCCNc1ncc(C(F)(F)F)cc1Cl [Ex. 9A, 1-[2-[(3-chloro-5-trifluoromethylpyridin-2-yl)amino]ethylamino]acetyl-2-cyano-(S)-pyrrolidine]	
295 nM			N#C[C@@H]1CCCN1C(=O)CNCCNc1ncc(Cl)cc1Cl [Ex. 9C, 1-[2-[(3,5-dichloropyridin-2-yl)amino]ethylamino]acetyl-2-cyano-(S)-pyrrolidine]	
215 nM			COc1cc(Br)c(CCNCC(=O)N2CCC[C@H]2C#N)cc1OC [Ex. 11, 1-[2-(2-bromo-4,5-dimethoxyphenyl)ethylamino]acetyl-2-cyano-(S)-pyrrolidine]	
279 nM	38 nM	95 nM	CC(C)OCCCNCC(=O)N1CCC[C@H]1C#N [Ex. 12, 1-[3-(isopropoxy)propylamino]acetyl-2-cyano-(S)-pyrrolidine monohydrochloride]	59%
110 nM	24 nM	95 nM	N#C[C@@H]1CCCN1C(=O)CNCCCN1CCCC1=O [Ex. 14, 1-[3-(2-oxo-pyrrolidin-1-yl)propylamino]acetyl-2-cyano-(S)-pyrrolidine monohydrochloride]	
130 nM	60 nM	170 nM	CCOc1ccc(CCNCC(=O)N2CCC[C@H]2C#N)cc1 [Ex. 16, Pyrrolidine, 1-[[2-(4-ethoxyphenyl)ethyl]amino]acetyl-2-cyano-, (S)--, monohydrochloride]	
60 nM	120 nM	250 nM	N#C[C@@H]1CCCN1C(=O)CN[C@@H]1CCN(Cc2ccccc2)C1 [Ex. 17, Pyrrolidine, 1-[(1-phenylmethyl-3-pyrrolidinyl)amino]acetyl-2-cyano-, (S)--(R)--, dihydrochloride]	
100 nM	70 nM	160 nM	COc1ccc(CCNCC(=O)N2CCC[C@H]2C#N)cc1 [Ex. 18, Pyrrolidine, 1-[[2-(4-methoxyphenyl)ethyl]amino]acetyl-2-cyano-, (S)--, monohydrochloride]	
120 nM	50 nM	180 nM	COc1cccc(CCNCC(=O)N2CCC[C@H]2C#N)c1 [Ex. 19, Pyrrolidine, 1-[[2-(3-methoxyphenyl)ethyl]amino]acetyl-2-cyano-, (S)--, monohydrochloride]	
150 nM	60 nM	170 nM	CN(CCCNCC(=O)N1CCC[C@H]1C#N)c1ccccc1 [Ex. 22, Pyrrolidine, 1-[[3-[(phenyl)(methyl)amino]propyl]amino]acetyl-2-cyano-, (S)--, dihydrochloride]	
50 nM	40 nM	40 nM	COc1ccc(CCNCC(=O)N2CCC[C@H]2C#N)cc1OC [Ex. 23, Pyrrolidine, 1-[2-[(3,4-dimethoxyphenyl)ethyl]amino]acetyl-2-cyano-, (S)--, monohydrochloride]	
170 nM	70 nM	240 nM	COc1ccc(OC)c(CCNCC(=O)N2CCC[C@H]2C#N)c1 [Ex. 26, Pyrrolidine, 1-[[2-(2,5-dimethoxyphenyl)ethyl]amino]acetyl-2-cyano-. (S)--, monohydrochloride]	
310 nM	160 nM	150 nM	N#C[C@@H]1CCCN1C(=O)CNCCC1=CCCCC1 [Ex. 27, Pyrrolidine, 1-[[2-(1-cyclohexenyl-1-yl)ethyl]amino]acetyl-2-cyano-, (S)--, monohydrochloride]	
650 nM	90 nM	80 nM	N#C[C@@H]1CCCN1C(=O)CNCCc1ccccn1 [Ex. 30, Pyrrolidine, 1-[[2-(2-pyridinyl)ethyl]amino]acetyl-2-cyano-, (S)--, dihydrochloride]	
130 nM	340 nM	1090 nM	N#C[C@@H]1CCCN1C(=O)CNCc1ccccc1Sc1ccccc1CO [Ex. 35, Pyrrolidine, 1-[[[2-[(2-hydroxymethyl)phenyl]thio]phenylmethyl]amino]acetyl-2-cyano-,(S)--, monohydrochloride]	
160 nM	80 nM	170 nM	COc1ccccc1CCNCC(=O)N1CCC[C@H]1C#N [Ex. 36, Pyrrolidine, 1-[[2-(2-methoxyphenyl)ethyl]amino]acetyl-2-cyano-, (S)--, monohydrochloride]	
380 nM	200 nM	220 nM	N#C[C@@H]1CCCN1C(=O)CNCCc1ccc(Cl)cc1Cl [Ex. 39, Pyrrolidine, 1-[[2-(2,4-dichlorophenyl)ethyl]amino]acetyl-2-cyano-, (S), monohydrochloride]	
140 nM	50 nM	100 nM	C[C@H](NCC(=O)N1CCC[C@H]1C#N)[C@H](O)c1ccccc1 [Ex. 41, Pyrrolidine, 1-[(2-hydroxy-2-phenylethyl)amino]acetyl-2-cyano-[2S-[1R*,2S*]-monohydrochloride]	
240 nM	180 nM	140 nM	N#C[C@@H]1CCCN1C(=O)CNCCc1ccccc1F [Ex. 42, Pyrrolidine, 1-[[2-(2-fluorophenyl)ethyl]amino]acetyl-2-cyano-, (S)--, monohydrochloride]	
150 nM	60 nM	280 nM	COc1cc(CCNCC(=O)N2CCC[C@H]2C#N)cc(OC)c1 [Ex. 46, Pyrrolidine, 1-[2-[(3,5-dimethoxyphenyl)ethyl]amino]acetyl-2-cyano-, (S)--, monohydrochloride]	
60 nM	40 nM	130 nM	N#C[C@@H]1CCCN1C(=O)CNC1CCN(Cc2ccccc2)CC1 [Ex. 66, Pyrrolidine, 1-[(1-phenylmethyl-4-piperidinyl)amino]acetyl-2-cyano-, (S)--, monohydrochloride]	

Source: US6124305A, “Use of N-(substituted glycyl)-2-cyanopyrrolidines in inhibiting dipeptidyl peptidase-IV” (Novartis AG, priority 1999, dated 2000)
